In brackets after ≈: the same amount, converted by molar mass.
Legend:
[1] = Properties of crystal form I (DVS hygroscopicity, stability); type: physicochemical
Experimental: The Dynamic Vapor Sorption (DVS) curve was acquired on the DVS Intrinsic of Surface Measurement Systems.
About 10 mg of the free base of the compound of formula X prepared according to the method of Example 1 was weighed into a glass vial, and an appropriate amount of ethyl acetate was added to obtain a nearly saturated solution, which was fully dissolved by ultrasonication and filtered. 20-200 uL of corresponding solvent was added to the clear filtrate, which was stood and the solvent was slowly evaporated at room temperature. After the solvent was completely evaporated, the resulting solid was collected and subjected to an XRPD test.

[2] = Stability test of free base, crystal form A and crystal form C (content and related substance); type: physicochemical; details: 5° C.
Experimental: The crystal form and purity change were measured respectively on 3rd and 7th day. The results are shown in Table 6, FIGS. 22, 23, 24 and 25. […]

[3] = Solubility test at room temperature; type: physicochemical; details: room temperature, shaken 24 h
Experimental: The solubility of the crystal form A, the crystal form C and the free base in 0.1 M HCL, pH 4.5, or pH 6.8 buffer or water was tested at room temperature. In the test, the standard curves of the crystal form A, the crystal form C and the free base were plotted respectively. Subsequently, a appropriate amount of the crystal form A, the crystal form C and the free base was weighed respectively, to which was added a appropriate amount of solvent. The mixture was shaken at room temperature for 24 h, centrifuged. The supernatant was taken and the solubility was determined. The results are shown in Table 7, (the concentration unit is mg/mi).

[4] = target: T1, CYP3A4 (Homo sapiens, UniProt P08684); test: Inhibition of CYP enzyme (CYP3A4, midazolam substrate, HLM); type: in vitro ADME
T1 construct: Add 200 μL of 0.2 mg/mL HLM to the assay wells; from tissue; host or cells: liver microsomes (HLM)
Experimental: 1. Preheat 0.1 M potassium phosphate buffer (K-buffer), pH 7.4:
100 mM K-Buffer: mix 9.5 mL Stock A into 40.5 mL Stock B, bring total volume to 500 mL with Milli-Q water, titrate the buffer with KOH or H3PO4 to pH 7.4.
Stock A (1 M monobasic potassium phosphate): 136.5 g of monobasic potassium phosphate in 1 L of Milli-Q water.
Stock B (1 M dibasic potassium phosphate): 174.2 g of dibasic potassium phosphate in 1 L of Milli-Q water.
2. Prepare serial dilution for test compounds and reference inhibitors (400×) in a 96-well plate:
2.1 Transfer 8 μL of 10 mM test compounds to 12 μL of ACN.
2.2 Prepare individual inhibitor spiking solution for reference: 8 μL of DMSO stock to 12 μL of ACN.
2.3 Prepare 1:3 serial dilutions in DMSO:ACN mixture (v/v: 40:60).
3. Prepare 4×NADPH cofactor (66.7 mg NADPH in 10 mL 0.1 M K-buffer, pH7.4).
4. Prepare 4×substrate (2 mL for each isoform) as indicated in the table below (add HLM where required on ice).
5. Prepare 0.2 mg/mL HLM solution (10 μL of 20 mg/mL to 990 μL of 0.1 M K-buffer) on ice.
6. Add 200 μL of 0.2 mg/mL HLM to the assay wells and then add 1 μL of test compounds or reference compounds into the designated wells on ice.
7. Add following solutions (in duplicate) in a 96-well assay plate on ice:
7.1 Add 30 μL of 2×test compounds and reference compound in 0.2 mg/mL HLM solution;
7.2 Add 15 μL of 4×substrate solution.
8. […]

[5] = target: T2, hERG potassium ion channel (Homo sapiens, UniProt Q12809); test: Inhibition of hERG potassium ion channel, manual whole-cell patch clamp in CHO hERG cells; type: cell-based
T2 construct: host or cells: CHO cells stably expressing hERG
Experimental: 2.1.1 Cells used in this experiment are CHO cell lines (supplied by Sophion Bioscience, Denmark) which are hERG cDNA transfectant and stably express hERG channels, cell progeny is P15. Cells are cultured in medium containing the following ingredients Invitrogen): Ham's F12 medium, 10% (v/v) inactivated fetal bovine serum, […] hygromycin B, […] Geneticin.
2.1.2 CHO hERG cells were grown in Petri dishes containing the above medium and cultured in an incubator containing 5% CO2 at 37° C. […]
In this experiment, whole-cell current recording was performed using a manual patch clamp system (HEKA EPC-10 signal amplification and digital conversion system, purchased from HEKA Electronic, Germany) The round glass slide of which surface CHO hERG cells were grown on was placed in an electrophysiological recording slot under an inverted microscope. […] The hERG potassium current recorded in the above steps should be superfused for test drug after the steady perfusion state of the extracellular fluid in the recording slot is stabilized until the inhibition of the hERG current by the drug reached a steady state. […]
The test data were analyzed by the data analysis software provided by HEKA Patchmaster (V2x73.2), Microsoft Excel and Graphpad Prism 5.0.

[6] = Potency compared with the existing dezocine (statement, no method given)

T1 sequence (P08684 whole entry): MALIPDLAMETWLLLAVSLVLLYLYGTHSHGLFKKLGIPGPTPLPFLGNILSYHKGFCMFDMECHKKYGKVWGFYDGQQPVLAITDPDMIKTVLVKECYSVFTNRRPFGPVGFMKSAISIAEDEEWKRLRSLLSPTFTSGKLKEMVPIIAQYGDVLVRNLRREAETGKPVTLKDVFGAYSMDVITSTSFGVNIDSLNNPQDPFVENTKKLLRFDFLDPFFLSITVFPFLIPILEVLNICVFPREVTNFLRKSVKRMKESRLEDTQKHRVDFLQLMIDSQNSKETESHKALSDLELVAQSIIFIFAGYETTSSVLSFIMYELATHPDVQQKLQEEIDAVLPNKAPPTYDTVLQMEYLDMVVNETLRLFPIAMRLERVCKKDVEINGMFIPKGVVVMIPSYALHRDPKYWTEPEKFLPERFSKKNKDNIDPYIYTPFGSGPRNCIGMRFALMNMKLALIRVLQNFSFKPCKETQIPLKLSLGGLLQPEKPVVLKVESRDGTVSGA
T2 sequence (Q12809 whole entry): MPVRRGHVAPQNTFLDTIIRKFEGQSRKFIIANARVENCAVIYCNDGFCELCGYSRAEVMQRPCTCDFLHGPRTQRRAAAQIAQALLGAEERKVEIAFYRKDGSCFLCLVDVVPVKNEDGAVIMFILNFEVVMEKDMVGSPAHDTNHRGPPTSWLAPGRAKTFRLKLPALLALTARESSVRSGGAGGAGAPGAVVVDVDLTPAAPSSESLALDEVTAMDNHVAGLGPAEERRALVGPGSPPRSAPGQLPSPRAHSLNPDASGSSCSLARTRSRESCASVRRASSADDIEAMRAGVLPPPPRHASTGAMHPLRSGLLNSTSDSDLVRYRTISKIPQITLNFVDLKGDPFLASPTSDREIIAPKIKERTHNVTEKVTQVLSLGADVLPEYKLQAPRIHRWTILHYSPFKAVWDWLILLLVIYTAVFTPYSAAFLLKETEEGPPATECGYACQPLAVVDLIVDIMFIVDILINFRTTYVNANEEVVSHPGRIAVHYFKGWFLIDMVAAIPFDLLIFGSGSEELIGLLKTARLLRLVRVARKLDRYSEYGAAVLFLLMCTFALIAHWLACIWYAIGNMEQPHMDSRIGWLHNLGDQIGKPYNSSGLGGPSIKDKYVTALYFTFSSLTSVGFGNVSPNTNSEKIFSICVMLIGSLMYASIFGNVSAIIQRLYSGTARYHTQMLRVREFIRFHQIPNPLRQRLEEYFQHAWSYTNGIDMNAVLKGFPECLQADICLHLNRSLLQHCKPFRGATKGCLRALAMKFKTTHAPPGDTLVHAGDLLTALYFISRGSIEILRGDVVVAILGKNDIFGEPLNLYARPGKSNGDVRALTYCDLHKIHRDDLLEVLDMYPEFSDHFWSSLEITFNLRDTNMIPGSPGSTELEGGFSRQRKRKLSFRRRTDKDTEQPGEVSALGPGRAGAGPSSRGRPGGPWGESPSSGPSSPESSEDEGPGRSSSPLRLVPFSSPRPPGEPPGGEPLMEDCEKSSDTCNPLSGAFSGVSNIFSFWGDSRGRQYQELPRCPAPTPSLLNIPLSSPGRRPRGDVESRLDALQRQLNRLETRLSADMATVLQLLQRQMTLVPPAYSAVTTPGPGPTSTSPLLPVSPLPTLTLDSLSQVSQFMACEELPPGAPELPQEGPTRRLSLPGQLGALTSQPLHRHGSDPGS

## C[C@@]12CCCCC[C@@H](Cc3ccc(OC(=O)NC4COC4)cc31)[C@@H]2N [Form I]
[1]
  stability (in words): good stability
[1]; DVS, 25° C., 0% RH~95% RH
  hygroscopicity (DVS curve): almost has no hygroscopicity

## C[C@@]12CCCCC[C@@H](Cc3ccc(OC(=O)NC4COC4)cc31)[C@@H]2N [free base of Compound X]
[2]; 0 d
  RRT(%) 0.76 (related substance): 1.19%
  RRT(%) 1.29 (related substance): 3.35%
  RRT(%) 1.53 (related substance): 0.18%
  RRT(%) 1.59 (related substance): 0.97%
  RRT(%) 1.75 (related substance): 0.43%
[2]; 0 d (control)
  Area (%): 93.88%
  Total impurity (%): 6.12%
  character: off-white solid
[3]; 0.1M HCL
  Final pH: 1.30
  phenomenon: Flocculent
  solubility: 18860 µg/mL (≈ 54.8 mM)
[3]; H2O
  Final pH: 8.61
  phenomenon: turbid
  solubility: 50 µg/mL (≈ 0.145 mM)
[3]; pH 4.5 buffer
  Final pH: 6.41
  phenomenon: turbid
  solubility: 3750 µg/mL (≈ 10.9 mM)
[3]; pH 6.8 buffer
  Final pH: 6.78
  phenomenon: turbid
  solubility: 2030 µg/mL (≈ 5.89 mM)
[4]; 1 μM
  inhibitory activity on CYP3A4 (in words): little inhibitory activity
[4]; human, human liver microsomes, pH 7.4, probe midazolam, substrate midazolam (M), 0.1 mg/mL HLM, read-out: CYP3A4(M) inhibition rate/1 μM
  inhibition at 5 min, 1 μM: 23.8%
[5]; 10 μM
  inhibitory activity on the hERG potassium ion channel (in words): little inhibitory activity
[5]; human, CHO cells stably expressing hERG channels, CHO hERG cells, patch clamp, ~25° C.
  inhibition at 10 μM: 20.6%
[6]
  potency compared with the existing dezocine: increased more than three-fold
